# Values quoted from earlier work in patent US11195597B2, “Method and device for calculating acid dissociation constant, and program” (FUJITSU LIMITED, priority 2015, dated 2021).
# Settings: known measured value; dissociation point circled in the structure
row,pKa,SMILES
1,12.48,CC(CCCNC(N)N)C(=O)O (stereo not drawn) [Number 11]
2,8.95,CC(CCCCN)C(=O)O.N (stereo not drawn) [Number 47]
3,10.53,NCCCCC(N)C(=O)O (stereo not drawn) [Number 48]
4,7.78,O=C(c1ccccc1)N1CCNCC1 [Number 52]
5,9.13,"N[C@@H](Cc1ccccc1)C(=O)O [Number 59, phenylalanine]"
6,10.49,"NCCCCCc1ccccc1 [Number 60, phenylamylamine]"
7,10.4,NCCCCc1ccccc1 [Number 61]
8,10.2,NCCCc1ccccc1 [Number 63]
9,9.39,NC(Cc1c[nH]c2ccccc12)C(=O)O (stereo not drawn) [Number 82]
10,3.3,"COc1ccccn1 [Number 90, 2-methoxypyridine]"
11,−2.6,"O=[N+]([O-])c1ccccn1 [Number 94, 2-nitropyridine]"
12,4.9,"COc1cccnc1 [Number 96, 3-methoxypyridine]"
13,5.7,Cc1cccnc1 [Number 97]
14,0.6,"O=[N+]([O-])c1cccnc1 [Number 99, 3-nitropyridine]"
15,4.8,"c1ccc(-c2cccnc2)cc1 [Number 100, 3-phenylpyridine]"
16,6.6,"COc1ccncc1 [Number 101, 4-methoxypyridine]"
17,1.6,"O=[N+]([O-])c1ccncc1 [Number 104, 4-nitropyridine]"
18,0.78,c1ccc(Nc2ccccc2)cc1 [Number 108]
19,5.14,"c1ccc2cnccc2c1 [Number 120, isoquinoline]"
20,5,"c1ccc2c(c1)CCCN2 [Number 132, tetrahydroquinoline]"

# Second part, the compound before the results:
row,SMILES,pKa
1,CC(C)C(=O)O.N [Number 5],9.69
2,CC(CCCNC(N)N)C(=O)O.N (stereo not drawn) [Number 10],9.04
3,CC(CC(N)=O)C(=O)O.N (stereo not drawn) [Number 12],8.8
4,CC(CC(=O)O)C(=O)O.N (stereo not drawn) [Number 13],9.82
5,CCc1ccccc1.N [Number 14],9.34
6,CCNCc1ccccc1 [Number 15],9.68
7,CNCc1ccccc1 [Number 16],9.58
8,CC1CCCCC1.N [Number 17],10.64
9,CNC1CCCCC1 [Number 18],10.49
10,CCCNCCC [Number 22],11
11,"CCC(C)NC(C)CC (stereo not drawn) [Number 23, di-sec-butylamine]",11.01
12,C=CCNCC=C [Number 24],9.29
13,C=CCN(C)CC=C [Number 25],8.79
14,"CC(C)CNCC(C)C [Number 28, di-isobutylamine]",10.5
15,CCCCN(C)C [Number 32],10.02
16,CCCN(C)C [Number 33],9.99
17,CC(C)CN(C)C [Number 35],10.52
18,CC(CCC(=O)O)C(=O)O.N (stereo not drawn) [Number 41],9.67
19,CC(Cc1cnc[nH]1)C(=O)O.N (stereo not drawn) [Number 43],9.17

row,SMILES,pKa
1,CCC(C)C(C)C(=O)O.N (stereo not drawn) [Number 44],9.68
2,CC(C)(C)CN [Number 58],10.21
3,O=C(O)C1CCCN1 (stereo not drawn) [Number 67],10.6
4,NC(CO)C(=O)O (stereo not drawn) [Number 72],9.15
5,"C[C@@H](O)[C@H](N)C(=O)O [Number 75, threonine]",9.1
6,"CCCCN(CCCC)CCCC [Number 76, tri-n-butylamine]",10.89
7,CC(C)C(N)C(=O)O (stereo not drawn) [Number 84],9.62
8,"Nc1ccc2ccccc2c1 [Number 92, 2-naphthalamine]",4.16
9,"N#Cc1ccccn1 [Number 93, 2-cyanopyridine]",−0.3
10,"N#Cc1cccnc1 [Number 98, 3-cyanopyridine]",1.4
11,"N#Cc1ccncc1 [Number 103, 4-cyanopyridine]",1.9
12,"c1ccc(-c2ccncc2)cc1 [Number 105, 4-phenylpyridine]",5.5
13,CN(C)c1ccccc1 [Number 109],5.2
14,c1ccc2[nH]cnc2c1 [Number 112],16.4
15,c1ccc2cc3ncccc3cc2c1 [Number 113],5.05
16,c1ccc2c(c1)[nH]c1ccccc12 [Number 114],19.9
17,c1ncc2[nH]cnc2n1 [Number 123],2.5
18,c1ncc2[nH]cnc2n1 [Number 124],8.9
